This is an account of results in patent US7825294B2 (priority 2006, dated 2010).

Holding throughout (type): cell-based
In assay [1] the test system is Fusarium graminearum (FGR). The following applies: standard plate assay, 4,000 spores/mL, ¼× potato dextrose broth, 28° C., 24 to 48 hours.
Assay [2] deals with Fusarium verticillioides (FVE).
For assay [3], the system named is Colectotricum graminicola (CGR). The following applies: standard plate assay, 4,000 spores/mL, ¼× Czapec-Dox V8, 28° C., 24 to 48 hours.
For assay [4], the system named is Diplodia maydis (DMA). As to conditions: standard plate assay, 6,000 spores/mL, ¼× potato dextrose broth, 28° C., 24 to 48 hours.

As for “Domain B (SPKKDEHEHCGKHASFNEEKKECVCHDKSEVFEKHHKKCKKAKDEKKKDDKKH; Domain B of SEQ ID NO34)”, the “antifungal activity against FGR” value in assay [1] is given as “showed antifungal activity to varying extents”.
In the case of “Domain C (KKDKHHDHCGKHASYSEEKKECVCHNKAEVFERKHKKCKKHISLR; Domain C of SEQ ID NO34)”, in assay [1], the “antifungal activity against FGR” value is on record as “showed antifungal activity to varying extents”.
For the molecule “Domain D (SIFNHCGRHAYYDEAKKECICHDAGKDFLKKHKTCACPQGEKWHHIERKCKA; Domain D of SEQ ID NO34)”, the “antifungal activity against FGR” value in assay [1] is given as “showed antifungal activity to varying extents”.
With “SEQ ID NO:1: antipathogenic polypeptide (52 amino acids) isolated from a fungal fermentation broth extract of Fusarium oxysporum, designated LB-12265 (SILHHCGKHASWDHAKSECVCHDSGKVYTKKHHKCKCPKGEKWHHIEKKCKK; PEPTIDE (1)...(52) Predicted mature LB-12265 peptide; listed as Fusarium oxysporum)”, the “antifungal activity against FVE” value in assay [2] is “showed antifungal activity”. Also, in assay [1], the “antifungal activity against FGR” value is listed as “showed antifungal activity”. Besides, in assay [3], the “antifungal activity against CGR” value was “showed antifungal activity”. Besides, the “antifungal activity against DMA” value in assay [4] was “showed antifungal activity”.
For “SEQ ID NO:3: deduced amino acid sequence encoded by a nucleotide sequence from a fungal contaminant, most likely Fusarium, of a proprietary maize EST library (SILHHCGKHASWDHAKSECVCHDSGKVYTKKHHKCKCPKGEKWHHIEKKCKK; Deduced amino acid sequence encoded by SEQ ID NO4 from a fungal contaminant of Zea mays)”, the “antifungal activity against FVE” value in assay [2] is recorded as “has antifungal activity”.

B1: SEQ ID NO:11: Q174 protein isolated from Hypocrea lixii (Accession No. CAA64974) (protein, listed as Hypocrea lixii)
chain: MLLKQVLVAALLSLSSVTAFPNPNNLHDVEARDVEDNLVARGGSHDCGSYASWNNGKNCCVCKDNGKNYDSKSKSCNCPSGYTWNGHQCVHDCGKDATWQYGNCVCNKKGEVYNPKDKTCSCPPGQYWNGKNCQVDCGKDASYDYKQKKCVCKKHGEIYNSNSKTCSCPPGQVWNGYACVVDCGKEAHFDNKQKKCVCNNYGEIYNSGSKTCACPGGQYFNGKKCVCPYGKVWNGKQCVEDCGKEAHFDYNQKKCVCKNNGEVYNSAKKTCSCPDGQYWNGKQCVCPYGQVFNGKQCVPDCGKEATFDYNQKKCVCKNKGEIYDSKTKTCSCPDGQVWNGKQCVCPYGQVFNGKQCVPDCGKDATYDYNQKKCVCKNKGEVFDQKTKTCSCPDGQYWNGKQCACPYGQIFNGKQCVPDCGKDATYDYNQKKCVCKNKGEVFDQKTKTCSCPDGQYWNGKQCVCPYGKIFDGKQCVEDCGKDAHFDNNQKKCVCNKNGEIYDSKSKTCSCPDSQYWDGSKCACPYGTVWDGKHCNQDCGKDAHFDSNQKKCVCNKQGEVYDSKSKTCSCPDGQYWDGSKCACPYGKVWDGKQCVPNCGKDASYDSKQNKCVCKNIGQVFDTKSLTCSCPAGTSWNGHACVQDCGKDAHYDSNQKCCVCNNKGESYDSKSKTCSCPGNQYWDGNKCACPYGSTWDSSKKTCKMNYP
For B1, in assay [2], the “antifungal activity against FVE” value is “showed antifungal activity to varying extents”. Moreover, the “antifungal activity against FGR” value in assay [1] is recorded as “showed antifungal activity to varying extents”. In addition, in assay [3], the “antifungal activity against CGR” value is “showed antifungal activity to varying extents”. For the same molecule, in assay [4], the “antifungal activity against DMA” value is listed as “showed antifungal activity to varying extents”.
